From patent US9999612B2, “PPARs agonist activity enhancing drug” (Tsujimoto Chemical Co., Ltd., priority 2012, dated 2018) come the findings set out here.

For assay [1], the system named is PPARα. Briefly: PPARα agonist activity, reporter gene assay using COS-1 cells. Type of assay: cell-based. Particulars: for PPARα agonist activity, ratio to WY14643 50 μM (= 1.00): FIG. 1; for difference between PPARα values of the R and S bodies: 25 μM, FIG. 6; for PPARα agonist activity: study of aliphatic chain length of δ-lactones. The procedure: (§1) The agonist activities of PPARα, PPARδ and PPARγ, respectively, were visually verified by a reporter gene assaying method using COS-1 cells so as to evaluate them. The evaluation method is as below.
(§2) The COS-1 cells were collected by trypsinization, centrifuged (1000 rpm, 4° C., 3 min.), and then seeded on a 60 mm Petri dish for cultivation in a density of 6×10^5 cells/well. After cultivation at 37° C. under 5% CO2 for 24 hours, cells were transformed using […]® Transfection Reagent (QIAGEN®). EC buffer ([…]), pPPARα-GAL4 (0.25 μg), pPPARδ-GAL4 (0.25 μg) or pPPARγ-GAL4 (0.25 μg), p17M2G (1 μg), pSEAP control vector (1 μg) were put into a 1.5 ml Eppendorf tube, to which 18 μl of Enhancer was added, and stirred by a vortex for 1 second. This was left to stand at room temperature for 3 minutes, to which 25 μl of Effectene was added, stirred by the voltex for 10 seconds, and left to stand at room temperature for 7 minutes. Simultaneously, the medium for transformation in the 60 mm Petri dish for cultivation was removed, to which […] of medium was added to exchange the medium. Seven minutes later, 1 ml of medium was added to the Eppendorf tube, suspended twice, dropped to a 60 mm Petri dish for cultivation, and cultivated 37° C. under 5% CO2 for 16 hours.
(§3) The cells were collected by trypsinization after 16 hours, centrifuged (1000 rpm, 4° C., 3 min.), and then suspended in 6 ml of medium, and seeded on a 96-well plate at 125 μl/well. The sample solution was added at 1.25 μl/well after 2-3 hours, and cultivated 37° C. under 5% CO2 for 24 hours. Then the medium was collected at 25 μl/well, a secreted alkaline phosphatase (SEAP) activity was measured using GREAT ESCAPE™ SEAP (Clontech Laboratories, Inc.) kit. As the outline, 1× dilution buffer was added at 25 μl/well, mildly stirred, sealed with a scotch tape, and incubated at 65° C. for 30 minutes. Subsequently, it was cooled at 4° C., and returned to room temperature, then an assay buffer was added at 90 μl/well. It was left to stand at room temperature for 5 minutes, to which 10 μl of MUP solution was added at 10 μl/well. At room temperature, it was left to stand in a dark room for 1 hour, and then fluorescence intensity based on 4-methylumbelliferyl phosphate (Ex=360 nm, Em=460 nm) was measured.
(§4) In order to measure the activity for PPARα, luciferase activity measuring cocktail (Invitrogen) was added to other 96 well plate at 100 μl/well to measure the emission intensity. Compensation among each well was performed by dividing the measured value of the luciferase activity by the SEAP activity value.
7 to 9, i.e. C9 to C11 in which the α and β positions in the lactone ring of the raw material are substituted by double bonds, which are the compounds of the present invention. […] The structure of carbon number C8 lacks one side chain in the carbon number C9, and the structure of carbon number C12 adds one side chain to the carbon number C11, in which no double bond is provided. The carbon numbers C9 to C11 represents numbers of the carbon atoms in the compounds of Chemical formulae 4 to 6 and Chemical formulae 7 to 9.
A general note: In a reporter assay the amount or activity of a reporter protein is the signal.

Assay [2] has as its system PPARγ. The assay is described as follows: PPARγ agonist activity, reporter gene assay using COS-1 cells. Type of assay: cell-based. The settings on record: for PPARγ agonist activity compared with control substance 10 μM Trogliazone: 50 μM. The procedure: as §1, §2, §3
(§5) Concentrations of the samples to be evaluated are 50 μM and 5 μM.

Assay [3] concerns PPARδ. The assay is described as follows: PPARδ agonist activity, reporter gene assay using COS-1 cells. Type of assay: cell-based. The procedure: as §1, §2, §3, §5
Assay [4] has as its target T1, PPARα (Homo sapiens, UniProt Q07869).
T1 construct: endogenous in cells; host or cells: HepG2
T1 sequence (Q07869 1-468): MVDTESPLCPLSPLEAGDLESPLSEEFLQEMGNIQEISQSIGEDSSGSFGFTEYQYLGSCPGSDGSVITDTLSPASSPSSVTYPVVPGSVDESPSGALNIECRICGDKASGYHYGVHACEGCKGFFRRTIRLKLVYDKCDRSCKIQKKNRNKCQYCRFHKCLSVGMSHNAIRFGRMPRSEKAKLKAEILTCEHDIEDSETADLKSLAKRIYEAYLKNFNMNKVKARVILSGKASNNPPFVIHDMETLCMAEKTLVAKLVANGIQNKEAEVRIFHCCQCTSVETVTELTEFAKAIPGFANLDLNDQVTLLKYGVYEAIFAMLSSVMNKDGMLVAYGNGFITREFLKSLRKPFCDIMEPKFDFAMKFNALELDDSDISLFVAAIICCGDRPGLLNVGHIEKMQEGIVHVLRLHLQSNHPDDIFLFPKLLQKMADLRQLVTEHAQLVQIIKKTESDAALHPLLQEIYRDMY
Briefly: Activity test using HepG2 cells: ACS and CPT1A gene expression (PPARα agonist activity). It counts as cell-based. Particulars: C11 at 50 μM and 25 μM, FIG. 4. The procedure:
Next, a novel compound C11 was focused, and further activity tests using HepG2 cells were carried out. […] In the figure, GAPDH represents a housekeeping indicator, ACS represents expression of lipid metabolism gene, and CPT1A represents expression of lipolytic gene. As a drug for comparison, Bezafibrate known as PPARα agonist activity enhancer was used with 50 μM dilution, and the compound C11 of the present invention was used at concentrations of 50 μM and 25 μM.

In assay [5] the test system is PPARγ. Briefly: Differentiation induction method using 3T3-L1 cells: fat cell differentiation induction-associated gene expression (Adiponectine). It counts as cell-based, mouse. Particulars: 25 μM, 12 μM and 6 μM, FIG. 5. The procedure:
Subsequently, an agonist activity test on fat cell differentiation induction-associated genes was similarly carried out for C11, and the results are shown in FIG. 5. In this test, the differentiation induction method using 3T3-L1 cells was conducted. For preparing samples, a plate having a total of 24 depressions of 6 lines×4 rows was used, and a known mouse fat cells was used to observe PPARγ agonist activities. In relation to 5 samples shown in the figure, in order from the right, a sample without insulin administration, a sample dosed with 1.7 μM of insulin, a sample dosed with 25 μM of C11 compound, a sample dosed with 12 μM of C11 compound and a sample dosed with 6 μM of C11 compound are shown. CAPDH is a housekeeping indicator, C/EBPα is a control, and Adiponectine is an expressed gene.

Assay [6] deals with PPARs. Briefly: PPARs agonist activity, collective evaluation (PPARα, δ and γ). It counts as cell-based. The settings on record: for difference between activities of the R body and the S body, three PPARs: FIG. 6, three tests averaged. The procedure: as §1, §2
The cells were collected by trypsinization after 16 hours, centrifuged (1000 rpm, 4° C., 3 min.), and then suspended in 6 ml of medium, and seeded on a 96-well plate at 125 μl/well. […] Then the medium was collected at 25 μl/well, a secreted alkaline phosphatase (SEAP) activity was measured using GREAT ESCAPE™ SEAP (Clontech Laboratories, Inc.) kit. […] At room temperature, it was left to stand in a dark room for 1 hour, and then fluorescence intensity based on 4-methylumbelliferyl phosphate (Ex=360 nm, Em=460 nm) was measured.
as §4

Setting [7] is: study of aliphatic chain length of δ-lactones.

Turning to `CCCC1CCCC(=O)O1` (stereo not shown) [C8, 6-propyltetrahydro-2H-pyran-2-one], the “PPARα agonist activity, ratio to WY14643 50 μM (= 1.00)” value (“PPARα agonist activity, ratio” for short) in assay [1] (5 μM) is on record as “can hardly be expected for the activity”. For the same compound, the PPARγ agonist activity entry in assay [2] (5 μM, FIG. 3) was “little activities”. Besides, the “PPARγ agonist activity compared with control substance 10 μM Trogliazone” value in assay [2] (FIG. 3) is “considerably lower activities than the values of C9 to C11”. In assay [3] (5 μM, FIG. 2), the PPARδ agonist activity entry was “little activity”.
In the case of `CCCCCCC1CC=CC(=O)O1` (stereo not shown) [C11, 6-hexyl-5,6-dihydro-2H-pyran-2-one], the “gene expression (ACS, CPT1A) compared with Bezafibrate 50 μM” value in assay [4] is listed as “at least equal to or greater than that of Bezafibrate”. Moreover, in assay [5], the “activity on fat cell differentiation induction-associated genes (Adiponectine expression)” value is on record as “effective activities”.
With `CCCCCCCC1CCCC(=O)O1` (stereo not shown) [C12, 6-heptyltetrahydro-2H-pyran-2-one], the “PPARα agonist activity, ratio” value in assay [1] (5 μM) and in assay [1] (50 μM) was “did not show strong activity” throughout. Moreover, the PPARγ agonist activity result in assay [2] (5 μM, FIG. 3) is on record as “little activities”. For the same compound, in assay [2] (FIG. 3), the “PPARγ agonist activity compared with control substance 10 μM Trogliazone” value is reported as “considerably lower activities than the values of C9 to C11”. In addition, in assay [3] (5 μM, FIG. 2), the PPARδ agonist activity entry is on record as “little activity”.
For the compound `CCCCC[C@@H]1CC=CC(=O)O1` [R body, (R)-6-pentyl-5,6-dihydro-2H-pyran-2-one], the “difference between PPARα values of the R and S bodies” value in assay [1] is recorded as “significant difference”. Moreover, the “difference between activities of the R body and the S body, three PPARs” value in assay [6] is “no significant difference”.
The like results for `CCCCC[C@H]1CC=CC(=O)O1` [S body, (S)-6-pentyl-5,6-dihydro-2H-pyran-2-one] were, in that order, “significant difference” and “no significant difference”.
For the compound `Cc1cccc(Nc2cc(Cl)nc(SCC(=O)O)n2)c1C` [WY14643], the “PPARα agonist activity, ratio” value in assay [1] (50 μM) is reported as 1.00.
Turning to `CCCCCC1CCCC(=O)O1` (stereo not shown) [δ-decanolactone, 6-pentyltetrahydro-2H-pyran-2-one], the PPARα agonist activity result in assay [1] is “strong agonist activity”. Also, the “activity of lactone structures (ring size comparison γ, δ, ϵ)” value in assay [6] (comparison of γ-, δ- and ϵ-decanolactone) is “relatively strong activity”. In addition, the PPARγ agonist activity result in assay [2] (setting [7]) is given as “strong agonist activity”. Besides, the PPARδ agonist activity result in assay [3] (setting [7]) is “strong agonist activity”.
As for `CCCCC1CCCC(=O)O1` (stereo not shown) [δ-nonanolactone, 6-butyltetrahydro-2H-pyran-2-one], in assay [1], the PPARα agonist activity entry is recorded as “strong agonist activity”. Also, the PPARγ agonist activity entry in assay [2] (setting [7]) is “strong agonist activity”. Further, the PPARδ agonist activity entry in assay [3] (setting [7]) was “strong agonist activity”.
As to `CCCCCCC1CCCC(=O)O1` (stereo not shown) [δ-undecanolactone, 6-hexyltetrahydro-2H-pyran-2-one], the PPARα agonist activity result in assay [1] is “strong agonist activity”. Moreover, the PPARδ agonist activity entry in assay [3] (setting [7]) is given as “strong agonist activity”.
